pIC50: −log10 of the molar value. Where two headings read alike, the source gives them in different places. Values belong to the compound of their own block, whether it stands above or below them.
Tests used:
ITK kinase domain = molecular target: T1, ITK kinase domain (Homo sapiens, UniProt Q08881); test: In vitro kinase assay (HITHUNTER enzyme fragment complementation), ITK; assay type: biochemical
T1 construct: N-terminally His-tagged ITK kinase domain (amino acids 352-617); His (N); made in house
T1 sequence (Q08881 352-617): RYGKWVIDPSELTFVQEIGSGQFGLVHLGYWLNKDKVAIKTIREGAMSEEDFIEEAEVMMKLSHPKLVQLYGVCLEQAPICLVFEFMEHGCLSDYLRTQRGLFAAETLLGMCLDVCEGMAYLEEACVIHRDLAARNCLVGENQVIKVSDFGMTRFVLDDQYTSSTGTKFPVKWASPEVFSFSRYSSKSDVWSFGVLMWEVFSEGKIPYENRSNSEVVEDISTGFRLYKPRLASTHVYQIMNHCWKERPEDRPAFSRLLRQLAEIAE
Procedure: Compounds were screened using the HITHUNTER™ enzyme fragment complementation method (Discoverx). Briefly, a recombinantly produced, N-terminally His-tagged ITK kinase domain (amino acids 352-617) was incubated with various concentrations of individual compounds. ATP and substrate were added, and the kinase reaction was allowed to proceed for 2-16 hours. Commercially available detection reagents were added and allowed to react for 2-4 hours. The reaction was evaluated by luminescence. Initial results were confirmed using full-length recombinant ITK protein.
In order to confirm the mechanism by which compounds depicted herein interact with the kinase domain of Tec and EGFR kinases, we created a point mutant of the ITK kinase domain, whereby the key amino acid, namely C442 was mutated to alanine. The protein was expressed in a commercial baculovirus expression system using the manufacturer's general protocol (Invitrogen, pBlueBac). Protein was expressed and purified using standard techniques. […] While the activity of WT-ITK was inhibited by compounds depicted in this application, the same compounds had no activity towards the C442A mutant kinase domain.

BTK kinase domain = molecular target: T2, BTK kinase domain (Homo sapiens, UniProt Q06187); test: In vitro kinase assay (HITHUNTER), BTK; assay type: biochemical
T2 construct: The kinase domains of BTK, LCK and ERK were expressed as recombinant purified proteins; made in house
T2 sequence (Q06187 402-655 limits assumed): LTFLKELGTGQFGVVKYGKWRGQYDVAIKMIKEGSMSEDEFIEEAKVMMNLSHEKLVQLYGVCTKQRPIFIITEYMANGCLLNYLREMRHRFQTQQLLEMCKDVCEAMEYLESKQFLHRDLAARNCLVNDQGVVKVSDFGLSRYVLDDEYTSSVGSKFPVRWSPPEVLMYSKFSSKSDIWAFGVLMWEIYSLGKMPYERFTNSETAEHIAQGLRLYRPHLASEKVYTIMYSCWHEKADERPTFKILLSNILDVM
Source text: Similarly, commercially available reagents such as HITHUNTER™ were used to evaluate the effect of compounds on the activity of additional kinases. The kinase domains of BTK, LCK and ERK were expressed as recombinant purified proteins were used for these studies.

[1] = Table 3, Compound, read-out: IC50 ITK

SMILES: CC(C)CN(C)CCC(=O)c1ccc2ccccc2c1
pIC50 (ITK kinase domain; Table 1, ITK, read-out: IC50): 7.87

SMILES: O=C(CCN1CCN(c2ccccc2)CC1)c1ccc2ccccc2c1
pIC50 (ITK kinase domain; Table 1, ITK, read-out: IC50): 8.37

SMILES: COc1ccc(C(=O)CCN2CCOCC2)cc1[N+](=O)[O-]
pIC50 (ITK kinase domain; Table 2, read-out: IC50 ITK): 7.70

SMILES: CN(C)C1CCN(CCC(=O)C2=CC3NC(=O)COC3C=C2)C1 (stereo not shown)
pIC50 (ITK kinase domain; [1]): 7.14
pIC50 (BTK kinase domain; Table 3, Compound): 5.72

SMILES: CN(CCC(=O)c1ccc2c(c1)NC(=O)CO2)Cc1ccc(F)cc1
pIC50 (ITK kinase domain; [1]): 8.00
pIC50 (BTK kinase domain; Table 3, Compound): 6.52

SMILES: CN(C)CCN1CCN(CCC(=O)c2ccc3c(c2)NC(=O)CO3)CC1
pIC50 (ITK kinase domain; [1]): 7.74
pIC50 (BTK kinase domain; Table 3, Compound): 6.32

SMILES: CN(C)C1CCN(CCC(=O)c2ccc3c(c2)NC(=O)CO3)CC1
pIC50 (ITK kinase domain; [1]): 7.89
pIC50 (BTK kinase domain; Table 3, Compound): 6.82

SMILES: CC(C)N(CCC(=O)c1ccc2c(c1)NC(=O)CO2)C(C)C
pIC50 (ITK kinase domain; [1]): 7.64
pIC50 (BTK kinase domain; Table 3, Compound): 6.26

SMILES: CN(CCC(=O)c1ccc2ccccc2c1)Cc1ccc(C(F)(F)F)cc1
pIC50 (ITK kinase domain; Table 4, read-out: IC50 ITK): 7.25

SMILES: O=C(CCN1CCN(Cc2ccccc2)CC1)c1ccc2ccccc2c1
pIC50 (ITK kinase domain; Table 4, read-out: IC50 ITK): 7.52

SMILES: O=C(CCN1CCOCC1)c1ccc2ccccc2n1
pIC50 (ITK kinase domain; Table 4, read-out: IC50 ITK): 7.32
pIC50 (BTK kinase domain; Table 4): 5.30

SMILES: O=C(CCN1CCOCC1)c1cnc2ccccc2c1
pIC50 (ITK kinase domain; Table 4, read-out: IC50 ITK): 6.72
pIC50 (BTK kinase domain; Table 4): 7.00

SMILES: O=C(CCN1CCOCC1)c1c[nH]c2ccccc12
pIC50 (ITK kinase domain; Table 4, read-out: IC50 ITK): 6.75
pIC50 (BTK kinase domain; Table 4): 5.09

SMILES: O=C(CCN1CCOCC1)c1n[nH]c2ccccc12
pIC50 (ITK kinase domain; Table 4, read-out: IC50 ITK): 7.31
pIC50 (BTK kinase domain; Table 4): 6.53

SMILES: O=C(CCN1CCOCC1)c1csc2ccccc12
pIC50 (ITK kinase domain; Table 4, read-out: IC50 ITK): 6.87
pIC50 (BTK kinase domain; Table 4): 6.21

SMILES: O=C(CCN1CCOCC1)c1ccc2sccc2c1
pIC50 (ITK kinase domain; Table 4, read-out: IC50 ITK): 7.22
pIC50 (BTK kinase domain; Table 4): 6.48

SMILES: O=C(CCN1CCOCC1)c1cc2ccccc2o1
pIC50 (ITK kinase domain; Table 4, read-out: IC50 ITK): 4.25
IC50 BTK (BTK kinase domain; Table 4): no IC50

SMILES: O=C(CCN1CCOCC1)c1cc2ccccc2s1
pIC50 (ITK kinase domain; Table 4, read-out: IC50 ITK): 8.00
pIC50 (BTK kinase domain; Table 4): 7.77

SMILES: O=C(CCN1CCOCC1)c1ccc2cc(O)ccc2c1
pIC50 (ITK kinase domain; Table 4, read-out: IC50 ITK): 7.52
pIC50 (BTK kinase domain; Table 4): 8.22

SMILES: O=C(O)c1ccc2cc(C(=O)CCN3CCOCC3)ccc2c1
pIC50 (ITK kinase domain; Table 4, read-out: IC50 ITK): 5.48
pIC50 (BTK kinase domain; Table 4): 5.63

SMILES: O=CNc1ccc2cc(C(=O)CCN3CCOCC3)ccc2c1
pIC50 (ITK kinase domain; Table 4, read-out: IC50 ITK): 7.38
pIC50 (BTK kinase domain; Table 4): 8.70

SMILES: O=C(CCN1CCCCC1)c1ccc2ccccc2c1
pIC50 (ITK kinase domain; Table 5, read-out: IC50 ITK): 6.27

SMILES: CN(C)CCC(=O)c1ccc2ccccc2c1
pIC50 (ITK kinase domain; Table 5, read-out: IC50 ITK): 6.79

SMILES: NC(=O)N1CCN(CCC(=O)c2ccc3ccccc3c2)CC1
pIC50 (ITK kinase domain; Table 5, read-out: IC50 ITK): 7.64
pIC50 (BTK kinase domain; Table 5): 6.82

SMILES: O=C(CCN1CCN(C(=O)N2CCOCC2)CC1)c1ccc2ccccc2c1
pIC50 (ITK kinase domain; Table 5, read-out: IC50 ITK): 7.22
pIC50 (BTK kinase domain; Table 5): 6.62

SMILES: CC(C)(C)C(=O)N1CCN(CCC(=O)c2ccc3ccccc3c2)CC1
pIC50 (ITK kinase domain; Table 5, read-out: IC50 ITK): 7.19
pIC50 (BTK kinase domain; Table 5): 6.44

SMILES: O=C(CCN1CCN(C(=O)c2ccncc2)CC1)c1ccc2ccccc2c1
pIC50 (ITK kinase domain; Table 5, read-out: IC50 ITK): 7.27
pIC50 (BTK kinase domain; Table 5): 7.74

Further lines, results first:

pIC50 (ITK kinase domain; Table 1, ITK, read-out: IC50): 7.88
SMILES: CC(C)C1CCN(CCC(=O)c2ccc3ccccc3c2)CC1

pIC50 (ITK kinase domain; Table 1, ITK, read-out: IC50): 8.16
SMILES: CC(C)C1CCN(CCC(=O)c2ccc3ccccc3c2)C1 (stereo not shown)

pIC50 (ITK kinase domain; Table 4, read-out: IC50 ITK): 7.64
SMILES: O=C(CCN1CCC(c2ccccc2)C1)c1ccc2ccccc2c1 (stereo not shown)

pIC50 (ITK kinase domain; Table 5, read-out: IC50 ITK): 6.07
SMILES: CC1CCCN1CCC(=O)c1ccc2ccccc2c1 (stereo not shown)

pIC50 (ITK kinase domain; Table 5, read-out: IC50 ITK): 6.51
SMILES: CC1CCN(CCC(=O)c2ccc3ccccc3c2)CC1

pIC50 (ITK kinase domain; Table 5, read-out: IC50 ITK): 7.44
SMILES: O=C(CCN1CCC(c2ccccn2)C1)c1ccc2ccccc2c1 (stereo not shown)

pIC50 (ITK kinase domain; Table 5, read-out: IC50 ITK): 7.79
SMILES: CC(C)N(C)CCC(=O)c1ccc2ccccc2c1

pIC50 (ITK kinase domain; Table 5, read-out: IC50 ITK): 6.93
pIC50 (BTK kinase domain; Table 5): 6.39
SMILES: O=C(CCN1CCNCC1)c1ccc2ccccc2c1

pIC50 (ITK kinase domain; Table 5, read-out: IC50 ITK): 7.25
pIC50 (BTK kinase domain; Table 5): 6.34
SMILES: CN(C)C(=O)N1CCN(CCC(=O)c2ccc3ccccc3c2)CC1

pIC50 (ITK kinase domain; Table 5, read-out: IC50 ITK): 7.18
pIC50 (BTK kinase domain; Table 5): 7.05
SMILES: CC(=O)N1CCN(CCC(=O)c2ccc3ccccc3c2)CC1

pIC50 (ITK kinase domain; Table 5, read-out: IC50 ITK): 7.06
pIC50 (BTK kinase domain; Table 5): 7.29
SMILES: O=C(CCN1CCCCNC1)c1ccc2ccccc2c1

pIC50 (ITK kinase domain; Table 5, read-out: IC50 ITK): 7.51
pIC50 (BTK kinase domain; Table 5): 7.15
SMILES: O=C(CCN1CCSCC1)c1ccc2ccccc2c1

pIC50 (ITK kinase domain; Table 5, read-out: IC50 ITK): 7.18
pIC50 (BTK kinase domain; Table 5): 6.93
SMILES: O=C(CCN1CCS(=O)(=O)CC1)c1ccc2ccccc2c1

pIC50 (ITK kinase domain; Table 5, read-out: IC50 ITK): 7.31
pIC50 (BTK kinase domain; Table 5): 6.91
SMILES: O=C(CCN1CCC[C@@H]1CO)c1ccc2ccccc2c1

pIC50 (ITK kinase domain; Table 5, read-out: IC50 ITK): 7.07
pIC50 (BTK kinase domain; Table 5): 7.08
SMILES: NCC1CCN(CCC(=O)c2ccc3ccccc3c2)CC1

Source: US20150290200A1, “INTRACELLULAR KINASE INHIBITORS” (Pharmacyclics Inc., priority 2006, published 2015)
